Measured values reported in PMC11157767 (Molecular Cancer, 2024).

Tested on: TRIM24-MET-i cells
Method: The number of unique and shared differentially expressed genes between each comparison are shown in parentheses. A linear regression line is depicted along with Pearson’s correlation coefficient (r) and its associated p-value. […] Common negatively enriched genesets between all three comparisons are in bold. c, Heatmaps showing expression of Hallmark_Myc_Target_v1/2 genes for indicated cells and treatment comparisons (TRIM-MET cells were treated in vitro, TFG-MET cells in vivo). Select leading edge genes from GSEA are labeled.

SMILES: C[C@@H](Oc1cc(-c2cnn(C3CCNCC3)c2)cnc1N)c1c(Cl)ccc(F)c1Cl [Crizotinib]
- ES GOMF_CATALYTIC_ACTIVITY_ACTING_ON_A_TRNA: -0.6982
- ES GOMF_GTPASE_ACTIVITY: -0.4838
- ES GOMF_GUANYL_NUCLEOTIDE_BINDING: -0.4485
- ES GOMF_HYDROLASE_ACTIVITY_ACTING_ON_ACID_ANHYDRIDES: -0.386
- ES GOMF_RRNA_BINDING: -0.7423
- NES GOMF_CATALYTIC_ACTIVITY_ACTING_ON_A_TRNA: -2.2819
- NES GOMF_GTPASE_ACTIVITY: -1.922
- NES GOMF_GUANYL_NUCLEOTIDE_BINDING: -1.812
- NES GOMF_HYDROLASE_ACTIVITY_ACTING_ON_ACID_ANHYDRIDES: -1.664
- NES GOMF_RRNA_BINDING: -2.231
- ES GARY_CD5_TARGETS_DN (GSEA v. DMSO): -0.652
- ES HALLMARK_ADIPOGENESIS (GSEA v. DMSO): -0.2603
- ES HALLMARK_ALLOGRAFT_REJECTION (GSEA v. DMSO): -0.4058
- ES HALLMARK_ANDROGEN_RESPONSE (GSEA v. DMSO): -0.4828
- ES HALLMARK_ANGIOGENESIS (GSEA v. DMSO): -0.5624
- ES HALLMARK_APICAL_JUNCTION (GSEA v. DMSO): -0.293
- ES HALLMARK_APICAL_SURFACE (GSEA v. DMSO): 0.4986
- ES HALLMARK_APOPTOSIS (GSEA v. DMSO): -0.4398
- ES HALLMARK_CHOLESTEROL_HOMEOSTASIS (GSEA v. DMSO): 0.2795
- ES HALLMARK_COAGULATION (GSEA v. DMSO): -0.4513
- ES HALLMARK_COMPLEMENT (GSEA v. DMSO): -0.5126
- ES HALLMARK_DNA_REPAIR (GSEA v. DMSO): -0.2541
- ES HALLMARK_E2F_TARGETS (GSEA v. DMSO): -0.2746
- ES HALLMARK_EPITHELIAL_MESENCHYMAL_TRANSITION (GSEA v. DMSO): -0.3755
- ES HALLMARK_ESTROGEN_RESPONSE_EARLY (GSEA v. DMSO): -0.4277
- ES HALLMARK_ESTROGEN_RESPONSE_LATE (GSEA v. DMSO): -0.3421
- ES HALLMARK_G2M_CHECKPOINT (GSEA v. DMSO): -0.3012
- ES HALLMARK_GLYCOLYSIS (GSEA v. DMSO): -0.404
- ES HALLMARK_HEDGEHOG_SIGNALING (GSEA v. DMSO): -0.4466
- ES HALLMARK_HYPOXIA (GSEA v. DMSO): -0.3351
- ES HALLMARK_IL2_STAT5_SIGNALING (GSEA v. DMSO): -0.5189
- ES HALLMARK_IL6_JAK_STAT3_SIGNALING (GSEA v. DMSO): -0.4268
- ES HALLMARK_INFLAMMATORY_RESPONSE (GSEA v. DMSO): -0.4921
- ES HALLMARK_INTERFERON_ALPHA_RESPONSE (GSEA v. DMSO): 0.2583
- ES HALLMARK_INTERFERON_GAMMA_RESPONSE (GSEA v. DMSO): -0.3093
- ES HALLMARK_KRAS_SIGNALING_DN (GSEA v. DMSO): 0.3288
- ES HALLMARK_KRAS_SIGNALING_UP (GSEA v. DMSO): -0.4922
- ES HALLMARK_MITOTIC_SPINDLE (GSEA v. DMSO): -0.2568
- ES HALLMARK_MTORC1_SIGNALING (GSEA v. DMSO): -0.5236
- ES HALLMARK_MYC_TARGETS_V1 (GSEA v. DMSO): -0.6267
- ES HALLMARK_MYC_TARGETS_V2 (GSEA v. DMSO): -0.805
- ES HALLMARK_MYOGENESIS (GSEA v. DMSO): -0.2282
- ES HALLMARK_NOTCH_SIGNALING (GSEA v. DMSO): -0.4408
- ES HALLMARK_OXIDATIVE_PHOSPHORYLATION (GSEA v. DMSO): -0.4296
- ES HALLMARK_P53_PATHWAY (GSEA v. DMSO): -0.2784
- ES HALLMARK_PANCREAS_BETA_CELLS (GSEA v. DMSO): 0.2429
- ES HALLMARK_PEROXISOME (GSEA v. DMSO): 0.273
- ES HALLMARK_PI3K_AKT_MTOR_SIGNALING (GSEA v. DMSO): -0.3625
- ES HALLMARK_PROTEIN_SECRETION (GSEA v. DMSO): -0.4081
- ES HALLMARK_TGF_BETA_SIGNALING (GSEA v. DMSO): -0.5775
- ES HALLMARK_TNFA_SIGNALING_VIA_NFKB (GSEA v. DMSO): -0.5914
- ES HALLMARK_UNFOLDED_PROTEIN_RESPONSE (GSEA v. DMSO): -0.6237
- ES HALLMARK_UV_RESPONSE_DN (GSEA v. DMSO): -0.3089
- ES HALLMARK_UV_RESPONSE_UP (GSEA v. DMSO): -0.4076
- ES HALLMARK_WNT_BETA_CATENIN_SIGNALING (GSEA v. DMSO): -0.3432
- ES KRIGE_RESPONSE_TO_TOSEDOSTAT_6HR_DN (GSEA v. DMSO): -0.6237
- ES KRIGE_RESPONSE_TO_TOSEDOSTAT_24HR_DN (GSEA v. DMSO): -0.6444
- ES LEE_BMP2_TARGETS_DN (GSEA v. DMSO): -0.6669
- ES WEI_MYCN_TARGETS_WITH_E_BOX (GSEA v. DMSO): -0.6994
- NES GARY_CD5_TARGETS_DN (GSEA v. DMSO): -2.697
- NES HALLMARK_ADIPOGENESIS (GSEA v. DMSO): -0.9905
- NES HALLMARK_ALLOGRAFT_REJECTION (GSEA v. DMSO): -1.519
- NES HALLMARK_ANDROGEN_RESPONSE (GSEA v. DMSO): -1.666
- NES HALLMARK_ANGIOGENESIS (GSEA v. DMSO): -1.626
- NES HALLMARK_APICAL_JUNCTION (GSEA v. DMSO): -1.114
- NES HALLMARK_APICAL_SURFACE (GSEA v. DMSO): 1.572
- NES HALLMARK_APOPTOSIS (GSEA v. DMSO): -1.646
- NES HALLMARK_CHOLESTEROL_HOMEOSTASIS (GSEA v. DMSO): 0.993
- NES HALLMARK_COAGULATION (GSEA v. DMSO): -1.59
- NES HALLMARK_COMPLEMENT (GSEA v. DMSO): -1.9374
- NES HALLMARK_DNA_REPAIR (GSEA v. DMSO): -0.9367
- NES HALLMARK_E2F_TARGETS (GSEA v. DMSO): -1.051
- NES HALLMARK_EPITHELIAL_MESENCHYMAL_TRANSITION (GSEA v. DMSO): -1.427
- NES HALLMARK_ESTROGEN_RESPONSE_EARLY (GSEA v. DMSO): -1.626
- NES HALLMARK_ESTROGEN_RESPONSE_LATE (GSEA v. DMSO): -1.298
- NES HALLMARK_G2M_CHECKPOINT (GSEA v. DMSO): -1.145
- NES HALLMARK_GLYCOLYSIS (GSEA v. DMSO): -1.5363
- NES HALLMARK_HEDGEHOG_SIGNALING (GSEA v. DMSO): -1.301
- NES HALLMARK_HYPOXIA (GSEA v. DMSO): -1.274
- NES HALLMARK_IL2_STAT5_SIGNALING (GSEA v. DMSO): -1.973
- NES HALLMARK_IL6_JAK_STAT3_SIGNALING (GSEA v. DMSO): -1.432
- NES HALLMARK_INFLAMMATORY_RESPONSE (GSEA v. DMSO): -1.856
- NES HALLMARK_INTERFERON_ALPHA_RESPONSE (GSEA v. DMSO): 0.9765
- NES HALLMARK_INTERFERON_GAMMA_RESPONSE (GSEA v. DMSO): -1.175
- NES HALLMARK_KRAS_SIGNALING_DN (GSEA v. DMSO): 1.322
- NES HALLMARK_KRAS_SIGNALING_UP (GSEA v. DMSO): -1.8648
- NES HALLMARK_MITOTIC_SPINDLE (GSEA v. DMSO): -0.9855
- NES HALLMARK_MTORC1_SIGNALING (GSEA v. DMSO): -2.004
- NES HALLMARK_MYC_TARGETS_V1 (GSEA v. DMSO): -2.398
- NES HALLMARK_MYC_TARGETS_V2 (GSEA v. DMSO): -2.6016
- NES HALLMARK_MYOGENESIS (GSEA v. DMSO): -0.867
- NES HALLMARK_NOTCH_SIGNALING (GSEA v. DMSO): -1.2742
- NES HALLMARK_OXIDATIVE_PHOSPHORYLATION (GSEA v. DMSO): -1.635
- NES HALLMARK_P53_PATHWAY (GSEA v. DMSO): -1.06
- NES HALLMARK_PANCREAS_BETA_CELLS (GSEA v. DMSO): 0.7197
- NES HALLMARK_PEROXISOME (GSEA v. DMSO): 1.047
- NES HALLMARK_PI3K_AKT_MTOR_SIGNALING (GSEA v. DMSO): -1.259
- NES HALLMARK_PROTEIN_SECRETION (GSEA v. DMSO): -1.414
- NES HALLMARK_TGF_BETA_SIGNALING (GSEA v. DMSO): -1.842
- NES HALLMARK_TNFA_SIGNALING_VIA_NFKB (GSEA v. DMSO): -2.258
- NES HALLMARK_UNFOLDED_PROTEIN_RESPONSE (GSEA v. DMSO): -2.204
- NES HALLMARK_UV_RESPONSE_DN (GSEA v. DMSO): -1.132
- NES HALLMARK_UV_RESPONSE_UP (GSEA v. DMSO): -1.522
- NES HALLMARK_WNT_BETA_CATENIN_SIGNALING (GSEA v. DMSO): -1.0353
- NES KRIGE_RESPONSE_TO_TOSEDOSTAT_6HR_DN (GSEA v. DMSO): -2.692
- NES KRIGE_RESPONSE_TO_TOSEDOSTAT_24HR_DN (GSEA v. DMSO): -2.791
- NES LEE_BMP2_TARGETS_DN (GSEA v. DMSO): -2.874
- NES WEI_MYCN_TARGETS_WITH_E_BOX (GSEA v. DMSO): -3.001
- ES GOBP_NCRNA_PROCESSING (GSEA, v. DMSO): -0.7604
- ES GOBP_RIBONUCLEOPROTEIN_COMPLEX_BIOGENESIS (GSEA, v. DMSO): -0.7216
- ES GOBP_RIBOSOME_BIOGENESIS (GSEA, v. DMSO): -0.7916
